{"source": "patent US7910573B2", "about": "“Crystalline forms of 11β-(4-acetylphenyl)-20,20,21,21,21-pentafluoro-17-hydroxy-19-nor-17α-pregna-4,9-dien-3-one” (Bayer Schering Pharma AG, priority 2006, dated 2011)", "assay_type_in_all_cases": "physicochemical", "key": {"[1]": {"test": "Short-term stability on storage at elevated temperature and elevated humidity", "conditions": "70° C.", "excerpt": "This is shown on comparison of the results of the temperature tests, moisture tests and in particular in light exposure tests.\n(§1) On use of 11β-(4-acetylphenyl)-20,20,21,21,21-pentafluoro-17-hydroxy-19-nor-17α-pregna-4,9-dien-3-one as active ingredient in pharmaceutical preparations, the profile of impurities is of crucial importance. A compound which occurs on storage of this active ingredient is 11β-(4-acetylphenyl)-20,20,21,21,21-pentafluoro-17-hydroxy-9,10-epoxy-19-nor-10α,17α-pregna-1,4-dien-3-one. The toxicity of this compound is known. The content of this impurity must be below 0.2% until the shelf life of the pharmaceutical formulation expires. […] The amorphous solid is therefore unsuitable without stabilization for use in a medicinal product. With polymorph I, however, the increase in this critical impurity is virtually zero. Elaborate stabilization on use of polymorph I is therefore no longer necessary. The formation of the abovementioned epoxy impurity on storage of amorphous 11β-(4-acetylphenyl)-20,20,21,21,21-pentafluoro-17-hydroxy-19-nor-17α-pregna-4,9-dien-3-one at a temperature of 70° C. is 0.6% after only 15 days and as much as 1.1% after 30 days. On the other hand, on storage of polymorph I at the same temperature for 30 days, just 0.1% of the epoxy impurity is detectable."}, "[2]": {"test": "Stability on storage under light (20 kLux)", "conditions": "for decrease in the active ingredient content: initial values 98.4% and 95.4%", "excerpt": "The greater stability of polymorph I is even clearer on storage under light. […] The initial values were 98.4% and 95.4% here too.\nas §1"}, "[3]": {"test": "Solid form conversion of the amorphous active ingredient under stress conditions", "conditions": "15 d, 90° C./75% relative humidity", "excerpt": "It can be assumed that such a recrystallization also occurs on storage of the amorphous phase over a lengthy period at relatively low temperatures. Such a conversion is, however, undesired in the finished medicinal form because it may lead to an altered, non-reproducible release of the active ingredient, but may also influence the hardness of the medicinal form."}, "[4]": {"test": "Short-term stability on storage at elevated temperature and elevated humidity"}, "[5]": {"test": "Solubility in a water/ethanol mixture", "conditions": "proportion of water 20 wt %", "excerpt": "This dependency is depicted in FIG. 7. […] The required proportion of water is distinctly higher for other systems, so that the displacement can be carried out only at high dilution and thus with an inadequate space yield."}, "[6]": {"conditions": "50° C., 75% rel. humidity, 15 days"}, "[7]": {"conditions": "50° C., 75% rel. humidity, 30 days"}, "[8]": {"conditions": "50° C., no rel. humidity given, 15 days, initial content 98.4% or 95.4%"}, "[9]": {"conditions": "50° C., no rel. humidity given, 30 days, initial content 98.4% or 95.4%"}, "[10]": {"conditions": "70° C., 75% rel. humidity, 15 days"}, "[11]": {"conditions": "70° C., 75% rel. humidity, 30 days"}, "[12]": {"conditions": "70° C., no rel. humidity given, 15 days"}, "[13]": {"conditions": "70° C., no rel. humidity given, 30 days"}, "[14]": {"conditions": "90° C., 75% rel. humidity, 15 days"}, "[15]": {"conditions": "90° C., no rel. humidity given, 15 days"}}}
{"smiles": "CC(=O)c1ccc([C@H]2C[C@@]3(C)[C@@H](CC[C@@]3(O)C(F)(F)C(F)(F)F)[C@@H]3CCC4=CC(=O)CCC4=C32)cc1", "note": "[amorphous, 11β-(4-acetylphenyl)-20,20,21,21,21-pentafluoro-17-hydroxy-19-nor-17α-pregna-4,9-dien-3-one]", "values": [{"measurement": "formation of the epoxy impurity on storage", "setting": "[1]; 15 days", "value": 0.6, "unit": "%"}, {"measurement": "formation of the epoxy impurity on storage", "setting": "[1]; 30 days", "value": 1.1, "unit": "%"}, {"measurement": "increase in the epoxy impurity", "setting": "[2]; 20 kLux, 42 h", "value": 8.4, "unit": "%"}, {"measurement": "increase in the epoxy impurity", "setting": "[2]; 20 kLux, 66 h", "value": 11.2, "unit": "%"}, {"measurement": "decrease in the active ingredient content", "setting": "[2]; storage under 20 kLux for 42 h", "value": "−34", "unit": "%"}, {"measurement": "decrease in the active ingredient content", "setting": "[2]; storage under 20 kLux for 66 h", "value": "−42", "unit": "%"}, {"measurement": "change of solid form on storage", "setting": "[3]", "value": "Partial recrystallization to give polymorph I"}, {"measurement": "decrease in the active ingredient content", "setting": "[4]; [6]", "value": "−2.8", "unit": "%"}, {"measurement": "decrease in the active ingredient content", "setting": "[4]; [7]", "value": "−3.3", "unit": "%"}, {"measurement": "decrease in the active ingredient content", "setting": "[4]; [8]", "value": "−2.9", "unit": "%"}, {"measurement": "decrease in the active ingredient content", "setting": "[4]; [9]", "value": "−5.1", "unit": "%"}, {"measurement": "decrease in the active ingredient content", "setting": "[4]; [10]", "value": "−13.5", "unit": "%"}, {"measurement": "decrease in the active ingredient content", "setting": "[4]; [11]", "value": "−17.4", "unit": "%"}, {"measurement": "decrease in the active ingredient content", "setting": "[4]; [12]", "value": "−10.2", "unit": "%"}, {"measurement": "decrease in the active ingredient content", "setting": "[4]; [13]", "value": "−17.3", "unit": "%"}, {"measurement": "decrease in the active ingredient content", "setting": "[4]; [14]", "value": "−31.7", "unit": "%"}, {"measurement": "decrease in the active ingredient content", "setting": "[4]; [15]", "value": "−32.6", "unit": "%"}]}
{"smiles": "CC(=O)c1ccc([C@H]2C[C@@]3(C)[C@@H](CC[C@@]3(O)C(F)(F)C(F)(F)F)[C@@H]3CCC4=CC(=O)CCC4=C32)cc1", "note": "[11β-(4-Acetylphenyl)-20,20,21,21,21-pentafluoro-17-hydroxy-19-nor-17α-pregna-4,9-dien-3-one]", "values": [{"measurement": "solubility relative to the solubility in pure ethanol", "setting": "[5]", "value": "one-hundredth"}]}
{"smiles": "CC(=O)c1ccc([C@H]2C[C@@]3(C)[C@@H](CC[C@@]3(O)C(F)(F)C(F)(F)F)[C@@H]3CCC4=CC(=O)CCC4=C32)cc1", "note": "[polymorph I, 11β-(4-acetylphenyl)-20,20,21,21,21-pentafluoro-17-hydroxy-19-nor-17α-pregna-4,9-dien-3-one]", "values": [{"measurement": "formation of the epoxy impurity on storage", "setting": "[1]; 30 days", "value": 0.1, "unit": "%"}, {"measurement": "increase in the epoxy impurity", "setting": "[2]; 20 kLux, 42 h", "value": 0.1, "unit": "%"}, {"measurement": "increase in the epoxy impurity", "setting": "[2]; 20 kLux, 66 h", "value": 0.1, "unit": "%"}, {"measurement": "decrease in the active ingredient content", "setting": "[2]; storage under 20 kLux for 42 h", "value": "−0.2", "unit": "%"}, {"measurement": "decrease in the active ingredient content", "setting": "[2]; storage under 20 kLux for 66 h", "value": "−0.4", "unit": "%"}, {"measurement": "increase in the epoxy impurity", "setting": "[2]; storage under stress conditions and under light", "value": "below 0.2%"}, {"measurement": "decrease in the active ingredient content", "setting": "[4]; [6]", "value": 0, "unit": "%"}, {"measurement": "decrease in the active ingredient content", "setting": "[4]; [7]", "value": "−0.1", "unit": "%"}, {"measurement": "decrease in the active ingredient content", "setting": "[4]; [8]", "value": 0, "unit": "%"}, {"measurement": "decrease in the active ingredient content", "setting": "[4]; [9]", "value": "−0.3", "unit": "%"}, {"measurement": "decrease in the active ingredient content", "setting": "[4]; [10]", "value": "−0.1", "unit": "%"}, {"measurement": "decrease in the active ingredient content", "setting": "[4]; [11]", "value": "−0.2", "unit": "%"}, {"measurement": "decrease in the active ingredient content", "setting": "[4]; [12]", "value": "−1.5", "unit": "%"}, {"measurement": "decrease in the active ingredient content", "setting": "[4]; [13]", "value": "−3.5", "unit": "%"}, {"measurement": "decrease in the active ingredient content", "setting": "[4]; [14]", "value": "−0.2", "unit": "%"}, {"measurement": "decrease in the active ingredient content", "setting": "[4]; [15]", "value": "−3.6", "unit": "%"}]}
